Experimental findings from ChEMBL document CHEMBL4673220, “Synthesis of new coumarin tethered isoxazolines as potential anticancer agents” (Bioorg Med Chem Lett, 2018) are described below.

pIC50: −log10 of the molar value. Calls of active or inactive are those of the source. The rule behind the calls is not given here.

The nature of series [1]: Cytotoxicity against human FF2441 cells assessed as reduction in cell viability at 0.2 to 100 uM measured after 72 hrs by MTS assay. The series is classed as cell-based. The following applies: ff2441, 72 h, dose 0.2-100 µM.
Series [2] relates to UACC-903. Nature of the series: Antiproliferative activity against human UACC-903 cells assessed as reduction in cell viability at 0.5 to 200 uM measured after 72 hrs by MTS assay. Format: functional, cell-based. The note with it: dose 0.5-200 µM. On the technique in general: Tetrazolium assays rely on reduction of a dye to a coloured formazan, in cell work by metabolically active cells.

The subject of series [3] is UACC-903. Nature of the series: Antiproliferative activity against human UACC-903 cells assessed as reduction in cell viability measured after 72 hrs by MTS assay. The series is classed as functional, cell-based. The note with it: for pIC50: UACC-903, 72 h.
The test system of series [4] is UACC-903. The series can be described thus: Antiproliferative activity against human UACC-903 cells assessed as reduction in cell viability at 0.5 to 200 uM by MTS assay. Format: functional, cell-based. The following applies: dose 0.5-200 µM, TDE = time-dependent effect.
Series [5] deals with Ehrlich. Nature of the series: Antitumor activity against mouse EAT cells implanted in Swiss albino mouse assessed as tumor suppression at 100 mg/kg, ip administered on day 7, 9 and 11 post implantation and measured on day 12 relative to control. Format: functional. The following applies: 72 h, time 3 day.
Series [6] has as its system Ehrlich. Nature of the series: Antitumor activity against mouse EAT cells implanted in ip dosed Swiss albino mouse assessed as suppression of peritoneal angiogenesis at […] administered on day 7, 9 and 11 post implantation and measured on day 12 by Hematoxylin and eosin staining based assay. The series is classed as functional, organism-based. The note with it: time 3.0 day.

Series [7] deals with Ehrlich. The series can be described thus: Antitumor activity against mouse EAT cells implanted in ip dosed Swiss albino mouse assessed as induction of apoptosis causing membrane blebbing administered on day 7, 9 and 11 post implantation and measured on day 12 by Giemsa staining based light microscopy. The series is classed as functional, organism-based. The note with it: dose 100.0 mg/kg, time 3.0 day.

Series [8] concerns Ehrlich. The series can be described thus: Antitumor activity against mouse EAT cells implanted in ip dosed Swiss albino mouse assessed as induction of apoptosis causing shrinkage of cells administered on day 7, 9 and 11 post implantation and measured on day 12 by Giemsa staining based light microscopy. Format: functional, organism-based. The note with it: dose 100.0 mg/kg, time 3.0 day.

Series [9] has as its system Chorioallantoic membrane. The series can be described thus: Antiangiogenic activity in chicken fertilized egg chorioallantoic membrane assessed as inhibition of VEGF165-induced vascularization incubated for 2 days by digital camera photography analysis. The note with it: Gallus gallus, Embryo, time 2.0 day. The series is classed as functional.
The test system of series [10] is Chorioallantoic membrane. The series can be described thus: Antiangiogenic activity in chicken fertilized egg chorioallantoic membrane assessed as inhibition of secretion of VEGF-like factors. The following applies: Gallus gallus, Embryo. The series is classed as functional.
Series [11] has as its system Chorioallantoic membrane. The series can be described thus: Antiangiogenic activity in chicken fertilized egg chorioallantoic membrane assessed as inhibition of expression of VEGF-like factors. The note with it: Gallus gallus, Embryo. Format: functional.
Series [12] has as its system Ehrlich. Nature of the series: Antitumor activity against mouse EAT cells implanted in ip dosed Swiss albino mouse assessed as decrease in ascitic fluid administered on day 7, 9 and 11 post implantation and measured on day 12. The series is classed as functional, organism-based. The note with it: dose 100.0 mg/kg, time 3.0 day.
For series [13], the system named is Ehrlich. Nature of the series: Antitumor activity against mouse EAT cells implanted in ip dosed Swiss albino mouse assessed as induction of apoptosis causing plasma membrane degradation administered on day 7, 9 and 11 post implantation and measured on day 12 by Giemsa staining based light microscopy. Format: functional, organism-based. The following applies: dose 100.0 mg/kg, time 3.0 day.

The subject of series [14] is Ehrlich. The series can be described thus: Antitumor activity against mouse EAT cells implanted in ip dosed Swiss albino mouse assessed as increase in mouse survival at 100 mg/kg, ip administered on day 7, 9 and 11 post implantation and measured after 35 days relative to control. The series is classed as functional. The following applies: time 35 day.
Series [15] concerns Ehrlich. The series can be described thus: Antitumor activity against mouse EAT cells implanted in ip dosed Swiss albino mouse assessed as induction of apoptosis causing apoptotic body formation administered on day 7, 9 and 11 post implantation and measured on day 12 by Giemsa staining based light microscopy. Format: functional, organism-based. The following applies: dose 100.0 mg/kg, time 3.0 day.

The test system of series [16] is Ehrlich. Nature of the series: Antitumor activity against mouse EAT cells implanted in ip dosed Swiss albino mouse assessed as tumor regression administered on day 7, 9 and 11 post implantation and measured on day 12. The series is classed as functional, organism-based. The note with it: time 3.0 day.
For series [17], the system named is Ehrlich. Nature of the series: Antitumor activity against mouse EAT cells implanted in ip dosed Swiss albino mouse assessed as decrease in ascitic cell viability administered on day 7, 9 and 11 post implantation and measured on day 12 by tryphan blue assay. The following applies: dose 100.0 mg/kg, time 3.0 day. The series is classed as functional, organism-based.

A short description of series [18]: Toxicity in Swiss albino mouse implanted with mouse EAT cells assessed as decrease in body weight at 100 mg/kg, ip administered on day 7, 9 and 11 post implantation and measured on day 12. The following applies: in vivo, 72 h, time 3 day. Format: organism-based.

As for `Cc1cc(=O)oc2cc(OCC3CC(c4ccc(C(F)(F)F)cc4)=NO3)ccc12` (configuration not stated), the Activity entry in [1] is recorded as “Non-Toxic”. Moreover, in series [2], the outcome was inactive.
For the molecule `Cc1cc(=O)oc2cc(OCC3CC(c4ccc(F)cc4)=NO3)ccc12` (configuration not stated), the Activity result in series [1] is “Non-Toxic”. For the same molecule, the result in series [2] was inactive.
Taken in the same sequence, the figures for `COc1cccc(C2=NOC(COc3ccc4c(C)cc(=O)oc4c3)C2)c1` (configuration not stated) were “Non-Toxic” and “inactive”.
With `Cc1cc(=O)oc2cc(OCC3CC(c4cccc(F)c4)=NO3)ccc12` (configuration not stated), the Activity result in series [1] is recorded as “Non-Toxic”. For the same molecule, the result in series [2] was inactive.
A word on the pIC50: it is −log10 of the IC50, conventionally taken in molar units. Consider `Cc1cc(=O)oc2cc(OCC3CC(c4ccccc4Cl)=NO3)ccc12` (configuration not stated), for which the Activity result in series [3] was “Dose-dependent effect”; in series [4], “Tde”. Also, the negative logarithm of the IC50 (pIC50) in series [3] is 5.04.
As for `COc1cc(C2=NOC(COc3ccc4c(C)cc(=O)oc4c3)C2)cc(OC)c1OC` (configuration not stated), in [1], the Activity entry is listed as “Non-Toxic”. Further, the outcome in series [2] was inactive.
Turning to `Cc1cc(=O)oc2cc(OCC3CC(c4ccc5ccccc5c4)=NO3)ccc12` (configuration not stated), in series [1], the Activity entry is “Non-Toxic”. Besides, in series [2], the result was inactive.
Take `COc1ccc(C2=NOC(COc3ccc4c(C)cc(=O)oc4c3)C2)cc1` (configuration not stated): in series [3], the Activity result was “Dose-dependent effect” and the negative logarithm of the IC50 (pIC50) is 5.06. Also, the Activity entry in series [4] was “Tde”.
As to `Cc1cc(=O)oc2cc(OCC3CC(c4ccc(Br)cc4)=NO3)ccc12` (configuration not stated), the Activity entry in [1] is given as “Non-Toxic”. The outcome in series [2] was inactive.
Regarding `Cc1cc(=O)oc2cc(OCC3CC(c4c(F)cccc4Cl)=NO3)ccc12` (configuration not stated), in series [3], the Activity result is “Dose-dependent effect” and the pIC50 is 5.35. Moreover, the Activity entry in [4] was “Tde”.
Usually inhibition in vivo stands for the share of the control response that was lost under treatment. For `COc1ccc(C2=NOC(COc3ccc4c(C)cc(=O)oc4c3)C2)cc1OC` (configuration not stated), the inhibition in vivo at 100 mg/kg in series [5] worked out at 85%. The outcome in [6], in [7], in series [8], in [9], in series [10] and in series [11] was Active. The outcome in series [12], in series [13], in [15] and in series [17] was Active. Moreover, the Activity entry is “Dose-dependent effect” in [3], “Dose-dependent effect” in [16], “Tde” in series [4] and “Toxic” in series [18]. Besides, the negative-log IC50 (pIC50) in series [3] is 4.98. Moreover, in series [14], the “fold change (FC)” value is 2.
For `Cc1cc(=O)oc2cc(OCC3CC(c4ccc(Cl)cc4)=NO3)ccc12` (configuration not stated), the Activity result in [1] is given as “Non-Toxic”. Besides, the outcome in series [2] was inactive.
